Bridge positions count the residues as written; N and C are the ends. Peptide text beside a SMILES is read from it. * marks the point of attachment. Cypate = CC1(C)C(/C=C/C=C/C=C/C=C2/N(CCC(=O)*)c3ccc4ccccc4c3C2(C)C)=[N+](CCC(=O)O)c2ccc3ccccc3c21 Where only a bound is given, the exact number is not on record here.

The subject of one data set is A549. The data set can be described thus: Drug uptake in human A549 cells overexpressing […] integrin at 1 uM after 4 to 24 hrs by fluorescence microscopy. In kind it is ADME, cell-based. To be noted: a549, 1 µM.
On to `CC1(C)C(/C=C/C=C/C=C/C=C2/N(CCC(=O)N[C@H]3CSSC[C@@H](C(N)=O)NC(=O)[C@H](CC(=O)O)NC(=O)CNC(=O)[C@H](CCCNC(=N)N)NC3=O)c3ccc4ccccc4c3C2(C)C)=[N+](CCC(=O)O)c2ccc3ccccc3c21`, for which the Drug uptake entry is recorded as “Active”.

For `CC1(C)C(/C=C/C=C/C=C/C=C2/N(CCC(=O)NCCCC[C@@H]3NC(=O)[C@@H](Cc4ccccc4)NC(=O)[C@H](CC(=O)O)NC(=O)CNC(=O)[C@H](CCCNC(=N)N)NC3=O)c3ccc4ccccc4c3C2(C)C)=[N+](CCC(=O)O)c2ccc3ccccc3c21`, the Drug uptake entry was “Active”.

The target in the next data set is Integrin alpha-V/beta-3 (Homo sapiens, UniProt P05106+P06756). The data set can be described thus: Displacement of [125I]echistatin from human integrin […] expressed in human A549 cells by binding assay. The data set is classed as cell-based.
Sequence of Integrin alpha-V/beta-3 (P05106 27-788 limits assumed): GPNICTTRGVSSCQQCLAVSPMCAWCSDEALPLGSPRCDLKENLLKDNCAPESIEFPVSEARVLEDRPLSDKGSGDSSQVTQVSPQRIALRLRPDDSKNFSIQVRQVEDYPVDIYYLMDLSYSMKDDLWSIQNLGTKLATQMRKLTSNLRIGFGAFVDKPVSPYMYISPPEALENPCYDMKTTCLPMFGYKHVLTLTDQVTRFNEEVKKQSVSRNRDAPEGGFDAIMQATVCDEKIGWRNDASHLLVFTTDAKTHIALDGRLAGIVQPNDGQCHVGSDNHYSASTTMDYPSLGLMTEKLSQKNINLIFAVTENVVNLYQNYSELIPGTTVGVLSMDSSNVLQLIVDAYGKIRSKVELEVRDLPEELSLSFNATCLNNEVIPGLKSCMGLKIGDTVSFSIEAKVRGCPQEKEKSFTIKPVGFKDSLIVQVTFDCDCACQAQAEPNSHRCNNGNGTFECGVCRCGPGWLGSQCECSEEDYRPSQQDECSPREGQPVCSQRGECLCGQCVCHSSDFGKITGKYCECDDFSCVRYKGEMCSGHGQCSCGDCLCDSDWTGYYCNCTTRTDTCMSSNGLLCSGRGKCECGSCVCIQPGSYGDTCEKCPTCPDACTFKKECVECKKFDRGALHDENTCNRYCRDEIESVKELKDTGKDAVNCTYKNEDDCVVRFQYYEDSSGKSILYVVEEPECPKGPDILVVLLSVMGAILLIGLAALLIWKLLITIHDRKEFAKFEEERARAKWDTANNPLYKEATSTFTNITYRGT
Sequence of Integrin alpha-V/beta-3 (P06756 31-889 limits assumed): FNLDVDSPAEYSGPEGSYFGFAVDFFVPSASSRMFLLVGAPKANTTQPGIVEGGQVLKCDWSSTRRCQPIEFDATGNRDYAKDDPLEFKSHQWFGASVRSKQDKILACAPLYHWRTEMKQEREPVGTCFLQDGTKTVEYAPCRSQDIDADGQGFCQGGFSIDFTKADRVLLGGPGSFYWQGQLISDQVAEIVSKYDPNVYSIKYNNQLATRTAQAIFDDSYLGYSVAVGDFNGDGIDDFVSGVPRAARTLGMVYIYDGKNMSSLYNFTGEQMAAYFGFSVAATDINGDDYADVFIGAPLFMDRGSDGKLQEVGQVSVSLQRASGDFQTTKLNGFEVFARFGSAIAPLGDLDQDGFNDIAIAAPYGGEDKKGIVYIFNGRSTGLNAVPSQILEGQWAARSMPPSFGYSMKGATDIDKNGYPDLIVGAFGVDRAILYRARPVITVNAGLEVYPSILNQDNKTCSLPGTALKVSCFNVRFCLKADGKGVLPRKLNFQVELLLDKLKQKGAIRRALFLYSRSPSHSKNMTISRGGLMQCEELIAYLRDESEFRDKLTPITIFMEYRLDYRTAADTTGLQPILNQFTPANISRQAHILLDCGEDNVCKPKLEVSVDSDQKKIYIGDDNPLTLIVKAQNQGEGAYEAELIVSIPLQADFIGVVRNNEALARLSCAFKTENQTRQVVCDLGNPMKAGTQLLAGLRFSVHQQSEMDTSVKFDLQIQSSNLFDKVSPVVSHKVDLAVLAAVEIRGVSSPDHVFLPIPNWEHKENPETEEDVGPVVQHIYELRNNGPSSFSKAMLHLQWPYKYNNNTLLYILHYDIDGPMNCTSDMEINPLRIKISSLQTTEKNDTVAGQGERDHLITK
Sequence of Integrin alpha-V/beta-3 (P06756 891-1048 limits assumed): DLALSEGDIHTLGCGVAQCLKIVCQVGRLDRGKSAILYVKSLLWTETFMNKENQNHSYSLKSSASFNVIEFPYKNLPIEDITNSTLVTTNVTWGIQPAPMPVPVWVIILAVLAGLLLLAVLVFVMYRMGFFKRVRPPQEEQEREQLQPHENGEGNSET
Conditions: not given; call rule not given here
On to `CC1(C)C(/C=C/C=C/C=C/C=C2/N(CCC(=O)NCCCC[C@@H]3NC(=O)[C@@H](Cc4ccccc4)NC(=O)[C@H](CC(=O)O)NC(=O)CNC(=O)[C@H](CCCNC(=N)N)NC3=O)c3ccc4ccccc4c3C2(C)C)=[N+](CCC(=O)O)c2ccc3ccccc3c21`, for which the IC50 was 0.72 µM.

`CC1(C)C(/C=C/C=C/C=C/C=C2/N(CCC(=O)N[C@H]3CSSC[C@@H](C(N)=O)NC(=O)[C@H](CC(=O)O)NC(=O)[C@@H]4CCCN4C(=O)[C@H](CCCNC(=N)N)NC3=O)c3ccc4ccccc4c3C2(C)C)=[N+](CCC(=O)O)c2ccc3ccccc3c21` (Cypate-CRPDC-NH2; disulfide 1-5) showed an IC50 greater than 10 µM.

Compound `CC(C)[C@@H]1NC(=O)[C@H](CCCNC(=N)N)NC(=O)[C@@H](NC(=O)CCN2/C(=C/C=C/C=C/C=C/C3=[N+](CCC(=O)O)c4ccc5ccccc5c4C3(C)C)C(C)(C)c3c2ccc2ccccc32)CSSC[C@@H](C(N)=O)NC(=O)[C@H](CC(=O)O)NC1=O` (Cypate-CRVDC-NH2; disulfide 1-5) displayed an IC50 greater than 10 µM.

`CC1(C)C(/C=C/C=C/C=C/C=C2/N(CCC(=O)N[C@H]3CSSC[C@@H](C(N)=O)NC(=O)[C@H](CC(=O)O)NC(=O)[C@H](Cc4ccc(O)cc4)NC(=O)[C@H](CCCNC(=N)N)NC3=O)c3ccc4ccccc4c3C2(C)C)=[N+](CCC(=O)O)c2ccc3ccccc3c21` (Cypate-CRYDC-NH2; disulfide 1-5) yielded an IC50 greater than 10 µM.
